In patent US6828317B2, “Antimicrobial thiadiazinone derivatives and their application for treatment of bacterial infections” (Pharmacia & Upjohn Company, priority 2002, dated 2004):
In brackets after ≈: the same amount, converted by molar mass. Values belong to the molecule of their own block, whether it stands above or below them.

Legend:
[1] = tested on: S. pneumoniae UC9912; experiment: MIC by agar dilution, S. pneumoniae UC9912; format: cell-based; details: Streptococcus pneumoniae, Mueller Hinton agar, overnight at 35° C.
Text: (§1) The in vitro activity of compounds of the subject invention may be assessed by standard testing procedures such as the determination of minimum inhibitory concentration (MIC) by agar dilution as described in “Approved Standard. Methods for Dilution Antimicrobial Susceptibility Tests for Bacteria that Grow Aerobically,” 3rd ed., published 1993 by the National Committee for Clinical Laboratory standards, Villanova, Pa., USA. The in vitro MICs of test compounds may be determined by a standard agar dilution method. A stock drug solution of each analog is prepared in a preferred solvent, usually DMSO:H2O (1:3). Serial 2-fold dilutions of each sample are made using 1.0 ml aliquots of sterile distilled water. To each 1.0 ml aliquot of drug is added 9 ml of molten Mueller Hinton agar medium. The drug-supplemented agar is mixed, poured into 15×100 mm petri dishes, and allowed to solidify and dry prior to inoculation. Vials of each of the test microorganisms are maintained frozen in the vapor phase of a liquid nitrogen freezer. Test cultures are grown overnight at 35° C. on the medium appropriate for the microorganism. Colonies are harvested with a sterile swab, and cell suspensions are prepared in Trypticase Soy broth (TSB) to equal the turbidity of a 0.5 McFarland standard. A 1:20 dilution of each suspension is made in TSB. The plates containing the drug supplemented agar are inoculated with a 0.001 ml drop of the cell suspension using a Steers replicator, yielding approximately 10^4 to 10^5 cells per spot. The plates are incubated overnight at 35° C. Following incubation the Minimum Inhibitory Concentration (MIC μg/ml), the lowest concentration of drug that inhibits visible growth of the microorganism, is read and recorded.

[2] = tested on: H. influenzae 30063; experiment: MIC by agar dilution, H. influenzae 30063; format: cell-based; details: Haemophilus influenzae, Mueller Hinton agar, overnight at 35° C.
Text: as §1

[3] = tested on: S. aureus UC9213; experiment: MIC by agar dilution, S. aureus UC9213; format: cell-based; details: Staphylococcus aureus, Mueller Hinton agar, overnight at 35° C.
Text: as §1

Structure (SMILES): CC(=O)NC[C@H]1CN(c2ccc(C3=NNC(=O)C(OC(C)=O)S3)c(F)c2)C(=O)O1 (stereo partly drawn) [Example 31, Acetic acid 2-{4-[5(S)-(acetylaminomethyl)-2-oxo-oxazolidin-3-yl]-2-fluorophenyl}-5-oxo-5,6-dihydro-4H-[1,3,4]thiadiazin-6-yl ester]
melting point: 174 to 177 °C

Structure (SMILES): CC(=O)NC[C@H]1CN(c2ccc(C3=NNC(=O)C4(CCC4)S3)c(F)c2)C(=O)O1 [Example 8, N-{3-[3-Fluoro-4-(9-oxo-5-thia-7,8-diazaspiro[3.5]non-6-en-6-yl)-phenyl]-2-oxo-oxazolidin-5(S)-ylmethyl}-acetamide]
MIC [1]: 0.5 µg/mL (≈ 1.23 µM)
melting point: 214 to 215 °C
MIC [2]: 32 µg/mL (≈ 78.7 µM)
MIC [3]: 2 µg/mL (≈ 4.92 µM)

Structure (SMILES): CC(=O)NC[C@H]1CN(c2ccc(C3=NNC(=O)C(C)(C)S3)c(F)c2)C(=O)O1 [Example 4, N-{3-[4-(6,6-Dimethyl-5-oxo-5,6-dihydro-4H-[1,3,4]thiadiazin-2-yl)-3-fluorophenyl]-2-oxo-oxazolidin-5(S)-ylmethyl}-acetamide]
MIC [1]: 0.25 µg/mL (≈ 0.634 µM)
melting point: 179 to 181 °C
MIC [2]: 16 µg/mL (≈ 40.6 µM)
MIC [3]: 2 µg/mL (≈ 5.07 µM)

Structure (SMILES): COC(=O)CN1N=C(c2ccc(N3C[C@H](CNC(C)=O)OC3=O)cc2F)SCC1=O [Example 33]
melting point: 157 to 158 °C

Structure (SMILES): CC(C)(C)OC(=O)NC[C@H]1CN(c2ccc(C3=NNC(=S)CS3)c(F)c2)C(=O)O1 [Example 28, N-{3-[3-Fluoro-4-(5-thioxo-5,6-dihydro-4H-[1,3,4]thiadiazin-2-yl)-phenyl]-2-oxo-oxazolidin-5(S)-ylmethyl}-carbamic acid tert-butyl ester]
melting point: 134 to 136 °C

Structure (SMILES): O=C(CC(=O)c1ccc(F)cc1)NC[C@H]1CN(c2ccc(C3=NNC(=O)CS3)c(F)c2)C(=O)O1 [Example 22, N-{3-[3-Fluoro-4-(5-oxo-5,6-dihydro-4H-[1,3,4]thiadiazin-2-yl)-phenyl]-2-oxo-oxazolidin-5(S)-ylmethyl}-3-(4-fluorophenyl)-3-oxo-propionamide]
MIC [1]: 1 µg/mL (≈ 2.05 µM)
melting point: 184 to 187 °C
MIC [2]: 16 µg/mL (≈ 32.8 µM)
MIC [3]: 4 µg/mL (≈ 8.19 µM)

Structure (SMILES): CCC1SC(c2ccc(N3C[C@H](CNC(C)=O)OC3=O)cc2F)=NNC1=O (stereo partly drawn) [Example 5, N-{3-[3-Fluoro-4-(6-ethyl-5-oxo-5,6-dihydro-4H-[1,3,4]thiadiazin-2-yl)-phenyl]-2-oxo-oxazolidin-5(S)-ylmethyl}-acetamide]
MIC [1]: 2 µg/mL (≈ 5.07 µM)
melting point: 177 to 179 °C
MIC [2]: 32 µg/mL (≈ 81.1 µM)
MIC [3]: 4 µg/mL (≈ 10.1 µM)

Structure (SMILES): CC(=O)NC[C@H]1CN(c2ccc(C3=NNC(=O)C(F)S3)c(F)c2)C(=O)O1 (stereo partly drawn) [Example 10, N-{3-[3-Fluoro-4-(6-fluoro-5-oxo-5,6-dihydro-4H-[1,3,4]thiadiazin-2-yl)-phenyl]-2-oxo-oxazolidin-5(S)-ylmethyl}-acetamide]
melting point: 218 to 220 °C

Structure (SMILES): CC(=O)NC[C@H]1CN(c2ccc(C3=NNC(=O)[C@H](C)S3)c(F)c2)C(=O)O1 [Example 2, N-{3-[3-Fluoro-4-(6(S)-methyl-5-oxo-5,6-dihydro-4H-[1,3,4]thiadiazin-2-yl)-phenyl]-2-oxo-oxazolidin-5(S)-ylmethyl}-acetamide]
MIC [1]: 0.25 µg/mL (≈ 0.657 µM)
melting point: 200 to 202 °C
MIC [2]: 4 µg/mL (≈ 10.5 µM)
MIC [3]: 1 µg/mL (≈ 2.63 µM)

Structure (SMILES): O=C1CSC(c2ccc(N3C[C@H](CO)OC3=O)cc2F)=NN1 [Example 34]
MIC [1]: 0.25 µg/mL (≈ 0.768 µM)
melting point: 224 to 227 °C
MIC [2]: 1 µg/mL (≈ 3.07 µM)
MIC [3]: 0.125 µg/mL (≈ 0.384 µM)

Structure (SMILES): CC(=O)NC[C@H]1CN(c2ccc(C3=NNC(=O)C(c4ccccc4)S3)c(F)c2)C(=O)O1 (stereo partly drawn) [Example 9, N-{3-[3-Fluoro-4-(5-oxo-6-phenyl-5,6-dihydro-4H-[1,3,4]thiadiazin-2-yl)-phenyl]-2-oxo-oxazolidin-5(S)-ylmethyl}-acetamide]
MIC [1]: 0.5 µg/mL (≈ 1.13 µM)
melting point: 122 to 123 °C
MIC [2]: 16 µg/mL (≈ 36.2 µM)
MIC [3]: 4 µg/mL (≈ 9.04 µM)

Structure (SMILES): CC(=O)NC[C@H]1CN(c2ccc(C3=NN(C)C(=O)CS3)c(F)c2)C(=O)O1 [Example 32, N-{3-[3-Fluoro-4-(4-methyl-5-oxo-5,6-dihydro-[1,3,4]thiadiazin-2-yl)-phenyl]-2-oxo-oxazolidin-5(S)-ylmethyl}-acetamide]
MIC [1]: 0.5 µg/mL (≈ 1.31 µM)
melting point: 179 to 180 °C
MIC [2]: 16 µg/mL (≈ 42.1 µM)
MIC [3]: 2 µg/mL (≈ 5.26 µM)

Structure (SMILES): CC(=O)CC(=O)NC[C@H]1CN(c2ccc(C3=NNC(=O)CS3)c(F)c2)C(=O)O1 [Example 21, N-{3-[3-Fluoro-4-(5-oxo-5,6-dihydro-4H-[1,3,4]thiadiazin-2-yl)-phenyl]-2-oxo-oxazolidin-5(S)-ylmethyl}-3-oxo-butyramide]
MIC [1]: 0.5 µg/mL (≈ 1.22 µM)
melting point: 176 to 178 °C
MIC [2]: 8 µg/mL (≈ 19.6 µM)
MIC [3]: 4 µg/mL (≈ 9.79 µM)

Structure (SMILES): CC(=O)NC[C@H]1CN(c2ccc(C3=NNC(=O)C(C(C)C)S3)c(F)c2)C(=O)O1 (stereo partly drawn) [Example 7, N-{3-[3-Fluoro-4-(6-isopropyl-5-oxo-5,6-dihydro-4H-[1,3,4]thiadiazin-2-yl)-phenyl]-2-oxo-oxazolidin-5(S)-ylmethyl}-acetamide]
melting point: 201 to 203 °C

Second part, the molecule after the results:

MIC [1]: 0.25 µg/mL (≈ 0.503 µM)
melting point: 144 to 145 °C
MIC [2]: 8 µg/mL (≈ 16.1 µM)
MIC [3]: 1 µg/mL (≈ 2.01 µM)
Structure (SMILES): O=C(/C=C/c1ccc(/C=N/O)cc1)NC[C@H]1CN(c2ccc(C3=NNC(=O)CS3)c(F)c2)C(=O)O1 [Example 23, N-{3-[3-Fluoro-4-(5-oxo-5,6-dihydro-4H-[1,3,4]thiadiazin-2-yl)-phenyl]-2-oxo-oxazolidin-5(S)-ylmethyl}-3-[4-(hydroxyimino-methyl)-phenyl]-acrylamide]

MIC [1]: 0.125 µg/mL (≈ 0.327 µM)
melting point: 157 to 158 °C
MIC [2]: 4 µg/mL (≈ 10.5 µM)
MIC [3]: 2 µg/mL (≈ 5.23 µM)
Structure (SMILES): O=C(CO)NC[C@H]1CN(c2ccc(C3=NNC(=O)CS3)c(F)c2)C(=O)O1 [Example 17, N-{3-[3-Fluoro-4-(5-oxo-5,6-dihydro-4H-[1,3,4]thiadiazin-2-yl)-phenyl]-2-oxo-oxazolidin-5(S)-ylmethyl}-2-hydroxyacetamide]

MIC [1]: 0.25 µg/mL (≈ 0.657 µM)
melting point: 205 to 206 °C
MIC [2]: 4 µg/mL (≈ 10.5 µM)
MIC [3]: 1 µg/mL (≈ 2.63 µM)
Structure (SMILES): CC(=O)NC[C@H]1CN(c2ccc(C3=NNC(=O)[C@@H](C)S3)c(F)c2)C(=O)O1 [Example 3, N-{3-[3-Fluoro-4-(6(R)-methyl-5-oxo-5,6-dihydro-4H-[1,3,4]thiadiazin-2-yl)-phenyl]-2-oxo-oxazolidin-5(S)-ylmethyl}-acetamide]

MIC [1]: 0.06 µg/mL (≈ 0.117 µM)
MIC [2]: > 64 µg/mL
MIC [3]: 1 µg/mL (≈ 1.95 µM)
Structure (SMILES): CO/N=C/c1ccc(/C=C/C(=O)NC[C@H]2CN(c3ccc(C4=NNC(=O)CS4)c(F)c3)C(=O)O2)cc1 [Example 24, N-{3-[3-Fluoro-4-(5-oxo-5,6-dihydro-4H-[1,3,4]thiadiazin-2-yl)-phenyl]-2-oxo-oxazolidin-5(S)-ylmethyl}-3-[4-(methoxyimino-methyl)-phenyl]-acrylamide]

MIC [1]: 0.125 µg/mL (≈ 0.34 µM)
melting point: 235 to 236 °C
MIC [2]: 4 µg/mL (≈ 10.9 µM)
MIC [3]: 2 µg/mL (≈ 5.44 µM)
Structure (SMILES): NC(=O)NC[C@H]1CN(c2ccc(C3=NNC(=O)CS3)c(F)c2)C(=O)O1 [Example 18, {3-[3-Fluoro-4-(5-oxo-5,6-dihydro-4H-[1,3,4]thiadiazin-2-yl)-phenyl]-2-oxo-oxazolidin-5(S)-ylmethyl}-urea]

MIC [1]: < 0.06 µg/mL
melting point: 158 to 161 °C
MIC [2]: 1 µg/mL (≈ 2.51 µM)
MIC [3]: 0.25 µg/mL (≈ 0.627 µM)
Structure (SMILES): CC(=S)NC[C@H]1CN(c2ccc(C3=NNC(=S)CS3)c(F)c2)C(=O)O1 [Example 26, N-{3-[3-Fluoro-4-(5-thioxo-5,6-dihydro-4H-[1,3,4]thiadiazin-2-yl)-phenyl]-2-oxo-oxazolidin-5(S)-ylmethyl}-thioacetamide]

MIC [1]: < 0.06 µg/mL
melting point: 206 to 209 °C
MIC [2]: 1 µg/mL (≈ 2.73 µM)
MIC [3]: 0.5 µg/mL (≈ 1.36 µM)
Structure (SMILES): CC(=O)NC[C@H]1CN(c2ccc(C3=NNC(=O)CS3)c(F)c2)C(=O)O1 [Example 1, N-{3-[3-Fluoro-4-(5-oxo-5,6-dihydro-4H-[1,3,4]thiadiazin-2-yl)-phenyl]-2-oxo-oxazolidin-5(S)-ylmethyl}-acetamide]

MIC [1]: 0.125 µg/mL (≈ 0.319 µM)
melting point: 239 to 240 °C
MIC [2]: 2 µg/mL (≈ 5.1 µM)
MIC [3]: 2 µg/mL (≈ 5.1 µM)
Structure (SMILES): O=C1CSC(c2ccc(N3C[C@H](CNC(=O)C4CC4)OC3=O)cc2F)=NN1 [Example 16, Cyclopropanecarboxylic acid {3-[3-fluoro-4-(5-oxo-5,6-dihydro-4H-[1,3,4]thiadiazin-2-yl)-phenyl]-2-oxo-oxazolidin-5(S)-ylmethyl}-amide]

MIC [1]: < 0.06 µg/mL
melting point: 182 to 183 °C
MIC [2]: 0.5 µg/mL (≈ 1.31 µM)
MIC [3]: 0.125 µg/mL (≈ 0.327 µM)
Structure (SMILES): CC(=S)NC[C@H]1CN(c2ccc(C3=NNC(=O)CS3)c(F)c2)C(=O)O1 [Example 25, N-{3-[3-Fluoro-4-(5-oxo-5,6-dihydro-4H-[1,3,4]thiadiazin-2-yl)-phenyl]-2-oxo-oxazolidin-5(S)-ylmethyl}-thioacetamide]

MIC [1]: 0.125 µg/mL (≈ 0.327 µM)
MIC [2]: 4 µg/mL (≈ 10.5 µM)
MIC [3]: 1 µg/mL (≈ 2.62 µM)
Structure (SMILES): COC(=O)NC[C@H]1CN(c2ccc(C3=NNC(=O)CS3)c(F)c2)C(=O)O1 [Example 19]
